From patent US7045528B2, “Benzofused heterozryl amide derivatives of thienopyridines useful as therapeutic agents, pharmaceutical compositions including the same, and methods for their use” (Agouron Pharmaceuticals, Inc., priority 2002, dated 2006)
Read-outs that look alike come from different tables or passages of the source.

Biological target: T1, unphosphorylated VEGF-R2Δ50 (FLVK) (Homo sapiens, UniProt P35968, DEL940-989/E990V)
T1 construct: VEGF-R2Δ50 contains residues 806–939 and 990–1171; made in house; host or cells: baculovirus/insect cell system
Test: VEGF-R2 coupled spectrophotometric assay, unphosphorylated VEGF-R2Δ50 (FLVK)
Assay type: biochemical
Conditions: for inhibition at 0.05 µM: read-out: FLVK (% inh @ 50 nM)
Excerpt: VEGF-R2 Construct for Assay:
This construct determines the ability of a test compound to inhibit tyrosine kinase activity. A construct (VEGF-R2Δ50) of the cytosolic domain of human vascular endothelial growth factor receptor 2 (VEGF-R2) lacking the 50 central residues of the 68 residues of the kinase insert domain was expressed in a baculovirus/insect cell system. Of the 1356 residues of full-length VEGF-R2, VEGF-R2Δ50 contains residues 806–939 and 990–1171, and also one point mutation (E990V) within the kinase insert domain relative to wild-type VEGF-R2. Autophosphorylation of the purified construct was performed by incubation of the enzyme at a concentration of 4 μM in the presence of 3 mM ATP and 40 mM MgCl2 in 100 mM HEPES, pH 7.5, containing 5% glycerol and 5 mM DTT, at 4° C. for 2 h. […] See Parast et al., Biochemistry, 37, 16788–16801 (1998).
Coupled Spectrophotometric (FLVK-P) Assay
The production of ADP from ATP that accompanies phosphoryl transfer was coupled to oxidation of NADH using phosphoenolpyruvate (PEP) and a system having pyruvate kinase (PK) and lactic dehydrogenase (LDH). The oxidation of NADH was monitored by following the decrease of absorbance at 340 nm (e340=6.22 cm^−1 mM^−1) using a Beckman DU 650 spectrophotometer. Assay conditions for phosphorylated VEGF-R2Δ50 (indicated as FLVK-P in the tables below) were the following: 1 mM PEP; 250 μM NADH; 50 units of LDH/mL; 20 units of PK/mL; 5 mM DTT; 5.1 mM poly(E4Y1); 1 mM ATP; and 25 mM MgCl2 in 200 mM HEPES, pH 7.5. Assay conditions for unphosphorylated VEGF-R2Δ50 (indicated as FLVK in the tables) were the following: 1 mM PEP; 250 μM NADH; 50 units of LDH/mL; 20 units of PK/mL; 5 mM DTT; 20 mM poly(E4Y1); 3 mM ATP; and 60 mM MgCl2 and 2 mM MnCl2 in 200 mM HEPES, pH 7.5. Assays were initiated with 5 to 40 nM of enzyme. Ki values were determined by measuring enzyme activity in the presence of varying concentrations of test compounds. […] The binding inhibitions were fitted to equation as described by Morrison. The data were analyzed using Enzyme Kinetic and Kaleidagraph software.

[1] = 50 nM compound, unphosphorylated VEGF-R2Δ50

T1 sequence (P35968 with tags, fused parts or gaps DEL940-989/E990V limits assumed): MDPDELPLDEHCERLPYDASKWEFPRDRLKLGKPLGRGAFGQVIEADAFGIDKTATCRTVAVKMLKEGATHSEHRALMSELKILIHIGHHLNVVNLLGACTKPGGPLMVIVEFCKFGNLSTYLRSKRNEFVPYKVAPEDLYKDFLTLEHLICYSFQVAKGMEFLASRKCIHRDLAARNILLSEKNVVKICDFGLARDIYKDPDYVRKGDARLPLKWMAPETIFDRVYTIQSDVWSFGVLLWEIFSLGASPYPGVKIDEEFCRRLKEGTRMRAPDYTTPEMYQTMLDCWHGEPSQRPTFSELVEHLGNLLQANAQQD

| inhibition at 0.05 µM [1] [%] | Ki (unphosphorylated VEGF-R2Δ50) [nM] | SMILES | inhibition at 0.05 µM [%] |
| --- | --- | --- | --- |
| 91 |  | Cc1oc2cc(Oc3ccnc4ccsc34)ccc2c1C(=O)NCCCN1CCOCC1 [Example 112, 2-Methyl-6-(thieno[3,2-b]pyridin-7-yloxy)benzofuran-3-carboxylic acid (3-morpholin-4-ylpropyl)-amide] |  |
| 96 |  | Cc1cc(NC(=O)c2c(C)oc3cc(Oc4ccnc5ccsc45)ccc23)n[nH]1 [Example 111, 2-Methyl-6-(thieno[3,2-b]pyridin-7-yloxy)-benzofuran-3-carboxylic acid (5-methyl-1H-pyrazol-3-yl)-amide] |  |
| 37 |  | CCC(=O)c1cc2nccc(Oc3ccc4c(C(=O)NCCCN5CCOCC5)c(C)n(C)c4c3)c2s1 [Example 68, 1,2-Dimethyl-6-(2-propionyl-thieno[3,2-b]pyridin-7-yloxy)-1H-indole-3-carboxylic acid (3-morpholin-4-yl-propyl)-amide] |  |
| 0 |  | Cc1oc2cc(Oc3ccnc4ccsc34)ccc2c1C(=O)O [Example 100, 2-Methyl-6[thieno[3,2-b]pyridin-7-yloxy]benzofuran-3-carboxylic acid] |  |
| 41 | 11.5 | CNC(=O)c1c(C)n(C)c2cc(Oc3ccnc4cc(C(=O)N5C[C@H](OC)[C@H](OC)C5)sc34)ccc12 [Example 36, 6-[2-(3,4-Dimethoxy-pyrrolidine-1-carbonyl)-thieno[3,2-b]pyridin-7-yloxy]-1,2-dimethyl-1H-indole-3-carboxylic acid methylamide] |  |
| 13 | 48.3 | CNC(=O)c1c(C(C)C)oc2cc(Oc3ccnc4cc(C(=O)N5CC[C@@H](OC)C5)sc34)ccc12 [Example 15, 6-(2-[3-methoxypyrrolidine-1-carbonyl]thieno[3,2-b]pyridin-7-yloxy)-2-(1-methylethyl)benzofuran-3-carboxylic acid methylamide] |  |
| 4 |  | CNC(=O)c1c(C)sc2cc(Oc3ccnc4cc(CN(C)C)sc34)ccc12 [Example 116, 6-(2-[Dimethylaminomethyl]thieno[3,2-b]pyridin-7-yloxy)-2-methylbenzo[b]thiophene-3-carboxylic acid methylamide] |  |
| 36 | 6.26 | CNC(=O)c1c(C(F)(F)F)n(C)c2cc(Oc3ccnc4cc(-c5nccn5C)sc34)ccc12 [Example 76, 1-Methyl-6-[2-(1-methyl-1H-imidazol-2-yl)-thieno[3,2-b]pyridin-7-yloxy]-2-trifluoromethyl-1H-indole-3-carboxylic acid methylamide] |  |
| 17 | 36.7 | Cc1oc2cc(Oc3ccnc4ccsc34)ccc2c1C(=O)NCc1ccncc1 [Example 107, 2-Methyl-6-[Thieno(3,2-b)pyridin-7-yloxy]benzofuran-3-carboxylic acid 2-[(4-pyridyl)-methyl] amide] |  |
| 16 | 119 | CNC(=O)c1c(C)sc2cc(Oc3ccnc4cc(COCCN5CCCC5)sc34)ccc12 [Example 114, 2-Methyl-6(2-[2-(pyrrolidin-1-yl)ethoxymethyl]thieno[3,2-b]pyridin-7-yloxy)benzo[b]thiophene-3-carboxylic acid methylamide] |  |
| 21 |  | Cc1oc2cc(Oc3ccnc4ccsc34)ccc2c1C(=O)NCCC1CCCN1C (stereo not shown) [Example 110, 2-Methyl-6-(thieno[3,2-b]pyridin-7-yloxy)-benzofuran-3-carboxylic acid [2-(1-methyl-pyrrolidin-2-yl)-ethyl]-amide] |  |
| 25 | 30.2 | CNC(=O)c1c(C)n(C)c2cc(Oc3ccnc4cc(C(=O)N(C)CCO)sc34)ccc12 [Example 31] |  |
| 90 |  | Cc1cc2nccc(Oc3ccc4c(C(=O)NCCCN5CCOCC5)c(C)sc4c3)c2s1 [Example 140, 2-Methyl-6-(2-methylthieno[3,2-b]pyridin-7-yloxy)benzo[b]thiophene-3-carboxylic acid (3-morpholin-4ylpropyl)-amide] |  |
| 4 |  | CNC(=O)c1c(C)sc2cc(Oc3ccnc4cc(CN5CCCC5)sc34)ccc12 [Example 115, 2-Methyl-6-(2-[pyrrolidin-1-ylmethyl]thieno[3,2-b]pyridin-7-yloxy)benzo[b]thiophene-3-carboxylic acid methylamide] |  |
| 48 | 10.3 | CCc1c(C(=O)NC)c2ccc(Oc3ccnc4cc(C(=O)N5CC[C@@H](O)C5)sc34)cc2n1C [Example 73, 2-Ethyl-6-[2-(3-hydroxy-pyrrolidine-1-carbonyl)-thieno[3,2-b]pyridin-7-yloxy]-1-methyl-1H-indole-3-carboxylic acid methylamide] |  |
| 99 |  | Cc1oc2cc(Oc3ccnc4ccsc34)ccc2c1C(=O)Nc1ccc2[nH]ccc2c1 [Example 113, 2-Methyl-6-(thieno[3,2-b]pyridin-7-yloxy)-benzofuran-3-carboxylic acid (1H-indol-5-yl)-amide] |  |
| 40 |  | Cc1cc2nccc(Oc3ccc4c(C(=O)NCCN5CCOCC5)c(C)sc4c3)c2s1 [Example 139, 2-Methyl-6-(2-methylthieno[3,2-b]pyridin-7-yloxy)benzo[b]thiophene-3-carboxylic acid (2-morpholin-4-yl-ethyl)-amide] |  |
| 38 | 25.8 | CNC(=O)c1cn(C)c2cc(Oc3ccnc4cc(C(=O)N5CC[C@@H](OC)C5)sc34)ccc12 [Example 22, 6-[2-(3-methoxypyrrolidine-1-carbonyl)-thieno[3,2-b]pyridin-7-yloxy]-1-methyl-1H-indole-3-carboxylic acid methylamide] |  |
| 58 | 12.5 | Cc1c(C(=O)NCC(C)C)c2ccc(Oc3ccnc4cc(-c5nccs5)sc34)cc2n1C [Example 67, 1,2-Dimethyl-4(2-thiazol-2-yl-thieno[3,2-b]pyridin-7-yloxy)-1 indole-3-carboxylic acid isobutyl-amide] |  |
| 41 | 19.7 | CNC(=O)c1c(C)n(C)c2cc(Oc3ccnc4cc(-c5nc(C(C)(C)O)co5)sc34)ccc12 [Example 47, 6-{2-[4-(1-Hydroxy-1-methyl-ethyl)-oxazol-2-yl]-thieno[3,2-b]pyridin-7-yloxy}1,2-dimethyl-1H-indole-3-carboxylic acid methylamide] |  |
| 6 | 88.8 | CNC(=O)c1c(C)n(C)c2cc(Oc3ccnc4cc(C(=O)N(C)CCN(C)C)sc34)ccc12 [Example 29, N-[2-(Dimethylamino)ethyl]-7-({1,2-dimethyl-3-[(methylamino)carbonyl]-1H-indol-6-yl}oxy)-N-methylthieno[3,2-b]pyridine-2-carboxamide] |  |
| 43 | 13.1 | CNC(=O)c1cn(C)c2cc(Oc3ccnc4cc(C(=O)N5CC[C@@H](O)C5)sc34)ccc12 [Example 21, 6-{2-[3-(R)-hydroxy-pyrrolidine-1-carbonyl]thieno[3,2-b]pyridin-7-yloxy}-1-methyl-1H-indole-3-carboxylic acid methylamide] |  |
|  |  | CCn1c(C)c(C(=O)NC)c2ccc(Oc3ccnc4cc(-c5nccn5C)sc34)cc21 [Example 72, 1-Ethyl-2-methyl-6-[2-(1-methyl-1H-imidazol-2-yl)-thieno[3,2-b]pyridin-7-yloxy]-1H-indole-3-carboxylic acid methylamide] | 2 |
| 41 | 24.9 | CNC(=O)c1c(C)n(C)c2cc(Oc3ccnc4cc(-c5cccc(CN(C)C)n5)sc34)ccc12 [Example 52, 6-[2-(6-Dimethylaminomethyl-pyridin-2-yl)-thieno[3,2-b]pyridin-7-yloxy]-1,2-dimethyl-1H-indole-3-carboxyllc acid methylamide] |  |
| 51 | 9.61 | CCc1oc2cc(Oc3ccnc4cc(C(=O)N5CCC[C@H]5COC)sc34)ccc2c1C(=O)NC [Example 96, 2-ethyl-6-(2-[(S)-2-(methoxymethyl)pyrrolidine-1-carbonyl]thieno[3,2-b]pyridin-7-yloxy)-benzofuran-3-carboxylic acid methyl amide] |  |
|  |  | CCn1c(C)c(C(=O)NC)c2ccc(Oc3ccnc4cc(C(=O)N5CCC5)sc34)cc21 [Example 71, 6-[2-(Azetidine-1-carbonyl)thieno[3,2-b]pyridin-7-yloxy]-1-ethyl-2-methyl-1H-indole-3-carboxylic acid methylamide] | 5 |
